According to patent US11203636B2, “Treatment of existing left ventricular heart failure” (YALE UNIVERSITY, priority 2017, dated 2021):

What was measured:
[1] = system: NKCC2, ENaC-beta, and NCC proteins in mouse M1 CCD cell line; assay: Expression of NKCC2, ENaC-beta and NCC in M1 CCD cells after treatment with IL-6 and/or Spironolactone (immunoblotting); format: cell-based; settings: FIGS. 5A-5C
Protocol: (§1) The mouse M1 CCD cell line (American Type Culture Collection (ATCC), Cat #CRL-2038) was maintained the cell culture medium containing equal amount of DMEM (Sigma-Aldrich, Cat #D6046) and Han F12 (Sigma-Aldrich, Cat #11765-047), supplemented with 5% Fetal Bovine Serum (FBS), 1% Penicillin-Streptomycin (Thermo Fisher Scientific, Cat #15140-122), 1% Insulin-Transferrin-Selenium (Thermo Fisher Scientific, Cat #51500-056) and 100 nM Dexamethasone (Sigma-Aldrich, Cat #D4902-100MG).
(§2) M1 CCD cells were seeded at 1 million/well in 6-well plate in the cell culture medium, and incubated overnight in a 37° C., 5% CO2 incubator on Day 0. The cell culture medium was changed to DMEM/F12 serum-free medium on Day 1 and the cells were incubated overnight in a 37° C., 5% CO2 incubator. On Day 2, the serum-free medium was removed and the cell culture medium was added to each well. Spironolactone (Selleckchem, Cat #54054) was added at the final concentration of 1 μM or 100 μM 10 min before the addition of IL-6 (Sigma-Aldrich, Cat #SRP3096-20UG) at the final concentration of 10 ng/mL, 100 ng/mL, or 500 ng/mL. A control well without Spironolactone or IL-6 was included. […] The sample were analyzed by immunoblotting using anti-NKCC2 antibody (Millipore, Cat #AB3562P), anti-ENaC-beta antibody (Millipore, Cat #AB3532P), or anti-NCC antibody (Millipore, Cat #AB3553) and the protein expression was quantified. […]

[2] = system: NKCC2, ENaC-beta, and NCC proteins in mouse M1 CCD cell line; assay: Expression of NKCC2, ENaC-beta and NCC in M1 CCD cells after treatment with IL-6 and/or Ruxolitinib (immunoblotting); format: cell-based; settings: IL-6 10, 100 or 500 ng/mL, 24 hours, FIGS. 4A-4C
Protocol: as §1
as §2, with “Ruxolitinib” for “Spironolactone”, “#51378)” for “#54054)”

Molecule	effect of Spironolactone on the IL-6 effect on ion transporter proteins (NKCC2, ENaC-beta, NCC) ([1]; Spironolactone 1 μM or 100 μM added 10 min before IL-6, 24 hours)	expression of NKCC2, ENaC-beta, and NCC after treatment of IL-6 [2]	expression of NKCC2, ENaC-beta, and NCC after treatment of IL-6 ([1]; IL-6 10, 100 or 500 ng/mL, 24 hours, immunoblotting)
CC(=O)S[C@@H]1CC2=CC(=O)CC[C@]2(C)[C@H]2CC[C@@]3(C)[C@@H](CC[C@@]34CCC(=O)O4)[C@H]12 [Spironolactone]	blocked the effect of IL-6 on the ion transporter proteins	–	–
IL-6: pro-inflammatory cytokine added to cells (Sigma-Aldrich, Cat #SRP3096-20UG)	–	increased the expression of NKCC2, ENaC-beta, and NCC	increased the expression of NKCC2, ENaC-beta, and NCC
